Reference: patent publication US6136831A, “Pyrazole derivatives and COX inhibitors containing them” (Grelan Pharmaceutical Co., Ltd., priority 1997, dated 2000)

Assays:
[1] = system: rat adjuvant-induced arthritis; experiment: Inhibitory Action on Adjuvant Arthritis (1) (Assay Example 2); type: in vivo, male Fisher rats; details: oral 5 mg/kg; for % Inhibition against Change in Relative Weight, Spleen / % Inhibition against Change in Relative Weight, Thymus: 7 times, relative weight per 100 g body weight, day 21; for % Inhibition against Reduction of Gain in Body Weight / Edema Inhibition (%) Left Hind Paw (Non-inflamed Paw) / Edema Inhibition (%) Right Hind Paw (Inflamed Paw) / Inflammation Score Inhibition (%): days 0, 3, 7, 10, 14, 17, 20; for % Inhibition against Reduction of Gain in Body Weight / Edema Inhibition (%) Left Hind Paw (Non-inflamed Paw) / Edema Inhibition (%) Right Hind Paw (Inflamed Paw): measured day 21; for Inflammation Score Inhibition (%): scored day 21
Method: Dry Mycobacterium butyricum killed organisms (Difco) were suspended in liquid paraffin to make the concentration 1% and the resulting suspension used as an adjuvant. The adjuvant (50 μl) was subplantarly injected to the right hind paw of male Fisher rats (5 to 6 animals per group) to raise arthritis. Each test compound was suspended in a 0.5% aqueous sodium carboxymethylcellulose (CMC-Na) solution and orally administered to the rats at a dose of 5 mg/kg on days 0, 3, 7, 10, 14, 17 and 20 (7 times in total) after the arthritis induction. On the 21st disease day the rats were measured for their body weight and the edema of their right and left hind paws. Simultaneously, systemic inflammatory states were scored. In addition, each of their spleen and thymus was taken out by excision to measure their wet weight and their relative weight per 100 g body weight was calculated.

[2] = system: acetic acid writhing in male ddY mice; experiment: Analgesic Action in Acetic Acid Writhing (Assay Example 3); type: in vivo
Method: A 0.7% acetic acid solution was intraperitoneally administered to male ddY mice at a dose of 10 ml/kg body weight. The frequency of writhing manifested was counted as an index of pains for a period of 10 minutes starting from the 10th minute after the administration. Ten or thirty minutes prior to the acetic acid administration, each test compound was orally given.

[3] = molecular target: T1, COX-1 (Ovis aries, UniProt P05979); experiment: Inhibitory Activity on COX-1 (Assay Example 1); type: biochemical; details: Table 1; read-out: COX Inhibiting Activity IC50, COX-1
T1 construct: purchased Cayman Chemical Co
T1 sequence (P05979 25-600): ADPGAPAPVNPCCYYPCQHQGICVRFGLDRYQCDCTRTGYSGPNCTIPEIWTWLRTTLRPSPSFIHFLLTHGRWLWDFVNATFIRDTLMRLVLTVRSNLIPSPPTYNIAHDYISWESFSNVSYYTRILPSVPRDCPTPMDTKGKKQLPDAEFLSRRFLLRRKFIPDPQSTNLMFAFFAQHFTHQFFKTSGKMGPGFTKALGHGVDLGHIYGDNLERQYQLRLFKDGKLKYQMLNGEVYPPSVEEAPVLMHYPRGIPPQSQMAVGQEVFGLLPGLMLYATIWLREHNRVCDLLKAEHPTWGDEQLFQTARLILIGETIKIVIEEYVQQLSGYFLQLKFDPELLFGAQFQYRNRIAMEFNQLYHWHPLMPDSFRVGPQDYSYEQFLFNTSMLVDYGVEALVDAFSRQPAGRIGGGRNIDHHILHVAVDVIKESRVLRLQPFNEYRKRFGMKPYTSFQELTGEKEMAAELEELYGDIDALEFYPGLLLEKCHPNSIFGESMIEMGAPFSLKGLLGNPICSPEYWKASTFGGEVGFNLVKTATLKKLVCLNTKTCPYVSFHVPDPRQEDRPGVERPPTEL

[4] = molecular target: T2, COX-2 (Ovis aries, UniProt P79208); experiment: Inhibitory Activity on COX-2 (Assay Example 1); type: biochemical; details: Table 1; for IC50: read-out: COX Inhibiting Activity IC50, COX-2
T2 construct: purchased Cayman Chemical Co
T2 sequence (P79208 17-603): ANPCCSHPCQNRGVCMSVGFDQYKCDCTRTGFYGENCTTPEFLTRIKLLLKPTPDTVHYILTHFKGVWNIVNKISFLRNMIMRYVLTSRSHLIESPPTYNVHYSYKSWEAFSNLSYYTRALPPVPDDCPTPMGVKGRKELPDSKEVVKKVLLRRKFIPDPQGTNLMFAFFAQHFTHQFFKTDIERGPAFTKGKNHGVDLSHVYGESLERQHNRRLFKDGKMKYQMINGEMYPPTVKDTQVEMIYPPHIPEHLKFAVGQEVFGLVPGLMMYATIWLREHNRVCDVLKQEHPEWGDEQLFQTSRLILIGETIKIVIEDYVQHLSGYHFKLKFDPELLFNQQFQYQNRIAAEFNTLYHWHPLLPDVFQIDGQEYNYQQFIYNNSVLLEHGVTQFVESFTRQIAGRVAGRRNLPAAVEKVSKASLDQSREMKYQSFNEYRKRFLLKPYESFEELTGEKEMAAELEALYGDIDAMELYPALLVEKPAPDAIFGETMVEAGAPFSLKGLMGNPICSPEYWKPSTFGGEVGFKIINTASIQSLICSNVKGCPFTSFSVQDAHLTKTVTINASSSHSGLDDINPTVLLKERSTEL

[5] = system: oxazolone-induced dermal delayed type hypersensitivity (IV-type allergy); experiment: Inhibitory Action on Oxazolone-Induced Dermal Delayed Type Hypersensitivity (Assay Example 8); type: in vivo, mice; details: for edema inhibition / increase in edematized auricle thickness: 4 days, 24 hours after challenge; for increase in edematized auricle thickness: control (0.12±0.03) mm
Method: Sensitization was conducted by topically applying 150 μl of 1% oxazolone solution (ethanol:acetone=3:1) to mice (5 to 6 animals per group), the abdominal and pectral regions of which were shaved in advance. Four days after the sensitization, 10 μl of 0.8% oxazolone solution (in olive oil) was topically applied to the […] left auricle to raise the response. Twenty-four hours later the auricular thickness was measured using a dial-gauge (Mitsutoyo Co.). Values obtained by subtracting auricular thickness data prior to the challenge were taken as indexes of the response. […] One hour after the final administration, the challenge was conducted.

[6] = system: Arthus reaction (III-type allergy); experiment: Inhibitory Action on Arthus Reaction (Assay Example 7); details: for increase in edematized left hind paw volume / edema inhibition: one hour prior to ovalbumin; for increase in edematized left hind paw volume: 2 hours, control (0.74±0.06) ml; for edema inhibition: significant, not more than 1% error level
Method: Rat anti-ovalbumin serum was prepared by the method given below. One mg of ovalbumin was dissolved in 1 ml of physiological saline and divided to two aliquots. The ovalbumin solution was intramuscularly administered to the femoral portion of male SD rats. Simultaneously, 0.5 ml of 0.05% Mycobacterium butyricum suspension as a Freund's complete adjuvant was intraperitoneally administered to the rats. Three days later, the same treatments were repeated. On the 12th day after the initial sensitization,antisera were collected.
Two hours later, the left hind paw volume was measured using a plethysmometer and the increases in paw volume were determined by comparing with those prior to the Arthus reaction induction. […] Each compound was suspended in a 0.5% aqueous CMC-Na solution and orally administered one hour prior to the ovalbumin administration. Control groups received only a 0.5% aqueous CMC-Na solution. The test of significance was conducted by Dunnett's multiple range test.

[7] = system: adjuvant arthritis in rats; experiment: Inhibitory Action on Adjuvant Arthritis (2) (Assay Example 6); type: in vivo, male F344/Du (Fisher) rats; details: oral 1 mg/5 ml/kg daily, 17 days
Method: A 1% dry Mycobacterium tuberculosis H37 RA killed organism suspension in liquid paraffin was employed as an adjuvant. The adjuvant suspension (50 μl) was subplantarly administered to the right hind paw of male F344/Du (Fisher) rats (5 to 6 animals per group) to raise arthritis. […] The next day after the final administration, the rats were measured for their body weight and the edema of their right and left hind paws. Simultaneously, systemic inflammatory states were scored. In addition, each of their spleen and thymus was taken out by excision to measure their wet weight and their relative weight per 100 g body weight was determined.

Row | SMILES | % Inhibition against Change in Relative Weight, Spleen [1] [%] | % Inhibition against Change in Relative Weight, Thymus [1] [%] | % Inhibition against Reduction of Gain in Body Weight [1] [%] | Edema Inhibition (%) Left Hind Paw (Non-inflamed Paw) [1] [%] | Edema Inhibition (%) Right Hind Paw (Inflamed Paw) [1] [%] | Inflammation Score Inhibition (%) [1] [%] | IC50 [3] [µM] | COX-1/COX-2 (ratio of IC50 values) [4] | IC50 [4] [µM] | further results
1 | CS(=O)(=O)c1ccc(-n2nc(C(F)(F)F)cc2-c2nc3ccc(F)cc3s2)cc1 [Example 2, 6-Fluoro-2-[1-(4-methylsulfonylphenyl)-3-trifluoromethyl-1H-pyrazol-5-yl]benzothiazole] | 2.5 | 56.7 | 75.9 | 91 | 94 | 97 | > 100 | > 263 | 0.38 | % Inhibition of Writhing Response ([2]; 10 mg/kg oral, Administration Point 1: 10 minutes prior to acetic acid): 49%; % Inhibition of Writhing Response ([2]; 10 mg/kg oral, Administration Point 2: 30 minutes prior to acetic acid): 57%
2 | CS(=O)(=O)c1ccc(-n2nc(C(F)(F)F)cc2-c2nc3c(F)cccc3s2)cc1 [Example 6, 4-Fluoro-2-[1-(4-methylsulfonylphenyl)-3-trifluoromethyl-1H-pyrazol-5-yl]benzothiazole] | 42.6 | 130.3 | 104.6 | 105 | 84 | 97 | > 100 | > 23.3 | 4.3 | edema inhibition ([5]; 30 mg/kg oral daily): 48%; increase in edematized auricle thickness ([5]; 30 mg/kg oral daily): 0.06±0.01 mm; action on oxazolone-induced delayed type hypersensitivity, in words ([5]; index test for immunoregulating activity, IV-type allergy): controlling actions; increase in edematized left hind paw volume ([6]; 50 mg/kg oral): 0.54 ± 0.04 mL; edema inhibition ([6]; 50 mg/kg oral): 27%; action on Arthus reaction, in words ([6]; index test for immunoregulating activity, III-type allergy): controlling actions
3 | NS(=O)(=O)c1ccc(-n2nc(C(F)(F)F)cc2-c2nc3ccc(F)cc3s2)cc1 [Example 13, 4-[5-(6-Fluorobenzothiazol-2-yl)-3-trifluoromethyl-1H-pyrazol-1-yl]benzenesulfonamide] | -10.5 | 71.3 | 48.6 | 76 | 71 | 78 | 47 | 142 | 0.33 | 
4 | COc1ccc2c(c1)c(CC(=O)O)c(C)n2C(=O)c1ccc(Cl)cc1 [Indomethacin, reference compound] |  |  | 19.8 | 75 | 43 | 51 |  |  |  | % Inhibition of Writhing Response ([2]; po, 3 mg/kg): 28%
5 | CS(=O)(=O)c1ccc(-n2nc(C(F)(F)F)cc2-c2ccc(F)cc2)cc1 [SC-58125, 5-(4-fluorophenyl)-1-(4-methylsulfonylphenyl)-3-trifluoromethyl-1H-pyrazole, reference compound] |  |  | 96.9 | 95 | 76 | 96 |  |  |  | % Inhibition of Writhing Response ([2]; 30 mg/kg oral, Administration Point 1: 10 minutes prior to acetic acid): 22%
6 | Cc1ccc(-c2cc(C(F)(F)F)nn2-c2ccc(S(N)(=O)=O)cc2)cc1 [YM-177, 4-[5-(4-methylphenyl)-3-trifluoromethyl-1H-pyrazol-1-yl]benzenesulfonamide, reference compound] |  |  | 25.5 | 65 | 37 | 44 |  |  |  | % Inhibition of Writhing Response ([2]; po, 30 mg/kg): 17%; % Inhibition against Reduction of Gain in Body Weight ([7]; measured next day): 21%; Edema Inhibition (%) Left Hind Paw (Non-inflamed Paw) ([7]; measured next day): 60%; Edema Inhibition (%) Right Hind Paw (Inflamed Paw) ([7]; measured next day): 41%; Inflammation Score Inhibition (%) ([7]; scored next day): 49%
7 | C[C@]12C=CC(=O)C=C1CC[C@@H]1[C@@H]2[C@@H](O)C[C@@]2(C)[C@H]1CC[C@]2(O)C(=O)CO [prednisolone, reference compound] |  |  |  |  |  |  |  |  |  | edema inhibition ([5]; 10 mg/kg oral daily): 70%; increase in edematized auricle thickness ([5]; 10 mg/kg oral daily): 0.04±0.01 mm; increase in edematized left hind paw volume ([6]; 10 mg/kg oral): 0.51 ± 0.02 mL; edema inhibition ([6]; 10 mg/kg oral): 31%
